Experimental findings from article PMC9458058, “Synthesis of N-Substituted Iminosugar C-Glycosides and Evaluation as Promising α-Glucosidase Inhibitors” (Molecules, 2022) are described below.

Each structure is given as a SMILES string.

One experiment concerns the target α-glucosidase from yeast (Saccharomyces cerevisiae, UniProt P53341). The experiment can be described thus: biochemical. The experiment is classed as biochemical. How it is done: The inhibitory potency of the synthesized N-substituted iminosugar C-glycosides 5 was assessed by testing the compounds in assays for the α-glucosidase from yeast. […] Alternatively, N atom was modified with various benzaldehydes, giving a library of iminosugar C-glycosides containing phenyl.
The extracts of each sample were dissolved in distilled water to prepare a certain concentration. 150 µL of the sample solution was mixed with 150 µL of maltose solution (prepared with 0.2 M, pH = 6.8 phosphate buffer) at a certain concentration, and cultured at 37 °C for 10 min. Then 150 µL of the enzyme solution at a certain concentration was added and mixed. The reaction was carried out at 37 °C for 60 min. The reaction was terminated in a boiling water bath for 10 min and centrifuged at 3000 r/min for 10 min. The supernatant was taken to determine the content of glucose with Glu kit. […] Enzyme activity inhibition rate (%) = (negative-sample)/(negative-blank) × 100%.

The target of the next experiment is α-glucosidase (Saccharomyces cerevisiae, UniProt P53341). The experiment can be described thus: Enzyme kinetics experiment (ultrafiltration recovery, Lineweaver-Burk plots). The experiment is classed as biochemical. The text has this: To determine which mechanism 6e belonged to, we removed the unreacted inhibitor from the enzyme solution by ultrafiltration, and examined whether the activity would be recovered or not by the method described in the literatures. When an enzyme solution containing 6e was subjected to ultrafiltration and then redissolved with the same concentration, the α-glucosidase activity was substantially recovered (Figure 5A).
Chain of α-glucosidase (P53341 whole entry): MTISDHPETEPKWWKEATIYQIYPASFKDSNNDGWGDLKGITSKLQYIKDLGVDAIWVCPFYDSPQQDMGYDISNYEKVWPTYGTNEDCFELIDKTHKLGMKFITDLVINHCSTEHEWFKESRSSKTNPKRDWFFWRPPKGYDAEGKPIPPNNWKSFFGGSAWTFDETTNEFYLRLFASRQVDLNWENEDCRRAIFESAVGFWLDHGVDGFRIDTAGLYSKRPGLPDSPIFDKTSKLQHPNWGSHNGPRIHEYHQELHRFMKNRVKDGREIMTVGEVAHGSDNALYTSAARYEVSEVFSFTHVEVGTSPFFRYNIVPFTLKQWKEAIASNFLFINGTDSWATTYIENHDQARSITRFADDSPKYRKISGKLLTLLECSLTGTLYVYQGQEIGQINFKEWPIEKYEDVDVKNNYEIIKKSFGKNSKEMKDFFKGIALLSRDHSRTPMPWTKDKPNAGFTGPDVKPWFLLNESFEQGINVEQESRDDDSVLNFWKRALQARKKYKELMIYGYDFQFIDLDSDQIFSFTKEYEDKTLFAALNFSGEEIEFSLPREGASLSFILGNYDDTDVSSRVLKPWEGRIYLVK
Further analysis of the compound 6e, in order to reveal the type of enzyme inhibition on α-glucosidase, was done with different substrate concentration.
Enzyme kinetics experiment: The principle of the experimental method is the same as that of the above method, in which the micro-membrane centrifuge tube with a pore diameter of 3K is used for small molecule centrifugal separation. In the enzyme kinetics experiment, the concentration of enzyme was set at a fixed concentration, and five concentration gradients were designed for the solution of substrate maltose. The linear relationship was plotted using the obtained results combined with the Michaelis-Menten equation.

Chain of α-glucosidase from yeast (P53341 whole entry): as above

As for `CC(=O)C[C@@H]1[C@H](O)[C@H](O)[C@H](O)CN1Cc1c(Cl)cc(O)cc1Cl` [Compound 6e, (1R, 2S, 3R, 4R)-1-Acetylmethyl-2,3,4-trihydroxyl-N-2,6-dichloro-4-hydroxylbenzylpiperidine], on α-glucosidase from yeast, the “inhibition compared with positive control Acarbose, in words” value is given as “stronger inhibitory potency than positive control Acarbose” and the “inhibitory potency relative to positive control Acarbose” value is given as 2 fold. Also, the IC50 on α-glucosidase from yeast (read-out: IC50 against α-glucosidase from yeast) is 0.9 µM. For the same compound, the “type of enzyme inhibition” value on α-glucosidase (Lineweaver-Burk plots) is recorded as “uncompetitive inhibitor”. Also, the Ki on α-glucosidase (Lineweaver-Burk plots, different substrate concentration) was determined as 8.6 µM. At α-glucosidase (enzyme activity after removal of inhibitor by ultrafiltration), the reversibility of inhibition result was “reversible inhibitor”.

A word on the IC50: it is the point on the concentration scale where inhibition reaches its midpoint. For orientation: Ki means the dissociation constant of the complex between target and ligand, obtained from inhibition or displacement.
